From US8841301B2, “Selective NR2B antagonists” (Bristol-Myers Squibb Company, priority 2011, dated 2014)
Structures can show the parent of a compound that is named as a salt.

Target: hNR2B (Homo sapiens, UniProt Q05586+Q13224)
Assay: Electrophysiology NMDA receptor experiments: two electrode voltage-clamp in Xenopus laevis oocytes expressing GluN1/GluN2 subunits
Type: cell-based
Conditions: oocytes voltage clamped at −40 mV; 50 μM glutamate, 30 μM glycine; read-out: Rating (hNR2B IC50)
Experimental: Electrophysiology NMDA Receptor Experiments.
Stage V and VI oocytes were surgically removed from the ovaries of large, well-fed and healthy Xenopus laevis anesthetized with 3-amino-benzoic acid ethyl ester (3 gm/l). Clusters of isolated oocytes were incubated with 292 U/ml Worthington (Freehold, N.J.) type IV collagenase or 1.3 mg/ml collagenase (Life Technologies, Gaithersburg, Md.; 17018-029) for 2 hr in Ca^2+-free solution comprised of (in mM) 115 NaCl, 2.5 KCl, and 10 HEPES, pH 7.5, with slow agitation to remove the follicular cell layer. Oocytes were then washed in the same solution supplemented with 1.8 mM CaCl2 and maintained in Barth's solution comprised of (in mM): 88 NaCl, 1 KCl, 2.4 NaHCO3, 10 HEPES, 0.82 MgSO4, 0.33 Ca(NO3)2, and 0.91 CaCl2 and supplemented with 100 μg/ml gentamycin, 10 μg/ml streptomycin, and 10 μg/ml penicillin. Oocytes were manually defolliculated and injected within 24 hrs of isolation with 3-5 ng of human GluN1 subunit cRNA and 7-10 ng of human GluN2 cRNA subunit in a 50 nl volume, and incubated in Barth's solution at 18° C. for 2-7 d. Glass injection pipettes had tip sizes ranging from 10-20 microns, and were backfilled with mineral oil. cRNA was synthesized from linearized template cDNA for rat glutamate receptor subunits according to manufacturer specifications (Ambion).
Two electrode voltage-clamp recordings were made 2-7 days post-injection. Oocytes were placed in a dual-track plexiglass recording chamber with a single perfusion line that splits in a Y-configuration to perfuse two oocytes. Dual recordings were made at room temperature (23° C.) using two Warner OC725B two-electrode voltage clamp amplifiers, arranged as recommended by the manufacturer. Glass microelectrodes (1-10 Megaohms) were filled with 300 mM KCl (voltage electrode) or 3 M KCl (current electrode). The bath clamps communicated across silver chloride wires placed into each side of the recording chamber, both of which were assumed to be at a reference potential of 0 mV. Oocytes were perfused with a solution comprised of (in mM) 90 NaCl, 1 KCl, 10 HEPES, […] and 0.5 BaCl2; pH 7.4, adjusted by addition of NaOH. Oocytes were recorded under voltage clamp at −40 mV. Final concentrations for glutamate and glycine were 50 μM and 30 μM, respectively. Concentration-response curves for experimental compounds were obtained by applying in successive fashion maximal glutamate/glycine, followed by glutamate/glycine plus variable concentrations of experimental compounds. Dose response curves consisting of four to eight concentrations were obtained in this manner. The baseline leak current at −40 mV was measured before and after recording, and the full recording linearly corrected for any change in leak current. The level of inhibition by applied experimental compounds was expressed as a percent of the initial glutamate response, and averaged together across oocytes from multiple experiments. Results were pooled, and the average percent responses at antagonist concentrations were fit by the equation, Percent Response=(100−minimum)/(1+([conc]/IC50)^nH)+minimum where minimum is the residual percent response in saturating concentration of the experimental compounds, IC50 is the concentration of antagonist that causes half of the achievable inhibition, and nH is a slope factor describing steepness of the inhibition curve. […]
For NMDA receptor subtype selectivity experiments human GluN1/GluN2A, GluN1/GluN2C, and GluN1/GluN2D cRNAs were expressed in Xenopus laevis as described above. Here, 10 μM concentrations of the antagonist was perfused with 50 μM glutamate and 30 μM glycine onto the oocyte for two min and the remaining current in the presence of the antagonist was compared to the maximal current obtained with 50 μM glutamate and 30 μM glycine alone (defined as 100%). When IC50 determinations were made against other NMDA receptor subtypes the protocol as described above was followed. […]

hNR2B, sequence (Q13224 27-1484, other chains not shown): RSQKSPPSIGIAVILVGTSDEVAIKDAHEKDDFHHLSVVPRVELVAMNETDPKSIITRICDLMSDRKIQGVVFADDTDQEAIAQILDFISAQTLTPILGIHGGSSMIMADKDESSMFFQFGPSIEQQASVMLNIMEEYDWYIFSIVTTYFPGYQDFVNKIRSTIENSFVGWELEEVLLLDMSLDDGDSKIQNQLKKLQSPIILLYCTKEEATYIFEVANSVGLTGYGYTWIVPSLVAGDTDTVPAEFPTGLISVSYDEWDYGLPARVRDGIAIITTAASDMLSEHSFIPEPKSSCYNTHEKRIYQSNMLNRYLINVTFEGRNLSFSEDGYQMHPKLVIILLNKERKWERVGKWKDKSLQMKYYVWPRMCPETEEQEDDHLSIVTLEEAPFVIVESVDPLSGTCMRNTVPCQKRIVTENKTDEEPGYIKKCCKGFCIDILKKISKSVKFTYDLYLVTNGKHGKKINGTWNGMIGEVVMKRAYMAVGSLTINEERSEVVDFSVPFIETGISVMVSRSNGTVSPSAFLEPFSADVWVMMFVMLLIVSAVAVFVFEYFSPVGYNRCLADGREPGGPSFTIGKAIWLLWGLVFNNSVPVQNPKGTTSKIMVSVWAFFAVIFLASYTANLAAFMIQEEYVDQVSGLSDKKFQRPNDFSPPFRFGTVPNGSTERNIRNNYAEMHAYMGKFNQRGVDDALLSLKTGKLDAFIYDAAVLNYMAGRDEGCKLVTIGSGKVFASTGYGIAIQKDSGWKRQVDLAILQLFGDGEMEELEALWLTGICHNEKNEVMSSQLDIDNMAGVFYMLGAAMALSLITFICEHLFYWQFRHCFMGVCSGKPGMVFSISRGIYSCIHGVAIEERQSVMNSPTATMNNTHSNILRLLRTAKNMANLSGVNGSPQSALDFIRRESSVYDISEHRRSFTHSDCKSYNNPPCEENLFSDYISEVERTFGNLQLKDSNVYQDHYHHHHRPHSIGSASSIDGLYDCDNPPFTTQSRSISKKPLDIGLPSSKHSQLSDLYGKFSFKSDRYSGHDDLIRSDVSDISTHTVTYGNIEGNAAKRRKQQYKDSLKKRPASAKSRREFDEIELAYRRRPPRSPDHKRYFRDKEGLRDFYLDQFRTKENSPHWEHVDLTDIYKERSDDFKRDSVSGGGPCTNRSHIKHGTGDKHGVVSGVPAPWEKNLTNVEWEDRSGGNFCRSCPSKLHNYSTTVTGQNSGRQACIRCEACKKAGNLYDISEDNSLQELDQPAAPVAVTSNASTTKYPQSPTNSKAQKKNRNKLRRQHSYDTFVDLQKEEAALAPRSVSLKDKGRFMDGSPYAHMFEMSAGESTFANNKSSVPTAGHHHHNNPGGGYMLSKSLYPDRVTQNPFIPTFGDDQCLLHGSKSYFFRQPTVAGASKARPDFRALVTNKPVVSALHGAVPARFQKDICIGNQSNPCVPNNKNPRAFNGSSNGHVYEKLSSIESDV

With O=c1ccc2cc(OCc3cc(Nc4ccc(Cl)cc4)ncn3)ccc2[nH]1 [Example 96] as the compound, how does the IC50 read?
The IC50 was under 0.2 µM.

O=c1ccc2cc(OCc3cc(NCc4ccc(Cl)c(Cl)c4)ncn3)ccc2[nH]1 [Example 97] was tested. Which IC50 did it give?
Its IC50 is 1 to 10 µM.

With O=c1ccc2cc(OCc3cncc(Nc4ccc(Cl)cc4)n3)ccc2[nH]1 [Example 99] as the compound, how does the IC50 read?
The IC50 was 1 to 10 µM.

With O=c1ccc2cc(OCc3cncc(NCc4ccc(Cl)cc4)n3)ccc2[nH]1 [Example 100] as the compound, how does the IC50 read?
The IC50 was 0.201 to 1 µM.

How did the IC50 turn out when O=c1ccc2cc(OCc3cncc(NCc4ccc(Cl)c(Cl)c4)n3)ccc2[nH]1 [Example 101] was run?
The IC50 was 1 to 10 µM.

How did the IC50 turn out when O=c1ccc2cc(CCc3cnc(Nc4ccc(OC(F)(F)F)cc4)nc3)ccc2[nH]1 [Example 108] was run?
Its IC50 is under 0.2 µM.

O=c1ccc2cc(CCc3cnc(Nc4ccc(OC(F)F)cc4)nc3)ccc2[nH]1 [Example 109] was tested. Which IC50 did it give?
Its IC50 is under 0.2 µM.

For O=c1ccc2cc(C3CC3c3cnc(Nc4ccc(OC(F)F)cc4)nc3)ccc2[nH]1 (stereo not drawn) [Example 110], which IC50 is on record?
Its IC50 is under 0.2 µM.

For FC(F)Oc1ccc(Nc2ncc(CCc3cccc4[nH]ncc34)cn2)cc1 [Example 111], which IC50 is on record?
Its IC50 is 1 to 10 µM.

With FC(F)Oc1ccc(Nc2ncc(CCc3ccc4[nH]ncc4c3)cn2)cc1 [Example 112] as the compound, how does the IC50 read?
Its IC50 is 0.201 to 1 µM.

For FC(F)Oc1ccc(Nc2ncc(CCc3ccc4cn[nH]c4c3)cn2)cc1 [Example 113], which IC50 is on record?
The IC50 was over 10 µM.

How did the IC50 turn out when FC(F)Oc1ccc(Nc2ncc(CCCNc3ncccn3)cn2)cc1 [Example 114] was run?
Its IC50 is over 10 µM.

For FC(F)Oc1ccc(Nc2ncc(CCCNc3ncnc4[nH]ncc34)cn2)cc1 [Example 115], which IC50 is on record?
Its IC50 is over 10 µM.

With FC(F)Oc1ccc(Nc2ncc(C3CC3c3cccc4[nH]ncc34)cn2)cc1 (stereo not drawn) [Example 117] as the compound, how does the IC50 read?
The IC50 was over 10 µM.

For CC(Cc1cnc(Nc2ccc(OC(F)F)cc2)nc1)c1ccc2[nH]c(=O)ccc2c1 (stereo not drawn) [Example 122], which IC50 is on record?
The IC50 was under 0.2 µM.

With N#Cc1n[nH]c2ccc(CCc3cnc(Nc4ccc(OC(F)F)cc4)nc3)cc12 [Example 124] as the compound, how does the IC50 read?
Its IC50 is over 10 µM.

Which IC50 does the source give for CCc1ccc(Nc2ncc(CCc3ccc4[nH]ncc4c3)cn2)cc1F [Example 125] here?
Its IC50 is 1 to 10 µM.

CCc1ccc(Nc2ncc(CCc3ccc4[nH]c(=O)ccc4c3)cn2)cc1F [Example 126] was tested. Which IC50 did it give?
Its IC50 is under 0.2 µM.

With CCc1ccc(Nc2ncc(CCc3ccc4[nH]ncc4c3)cn2)cc1 [Example 127] as the compound, how does the IC50 read?
Its IC50 is 0.201 to 1 µM.

Which IC50 does the source give for Fc1cc(Nc2ncc(CCc3ccc4[nH]ncc4c3)cn2)ccc1OC(F)F [Example 128] here?
The IC50 was under 0.2 µM.

O=c1ccc2cc(CCc3cnc(Nc4ccc(OC(F)F)c(F)c4)nc3)ccc2[nH]1 [Example 129] was tested. Which IC50 did it give?
Its IC50 is under 0.2 µM.

With CCc1ccc(Nc2ncc(CCc3ccc4[nH]c(=O)ccc4c3)cn2)cc1 [Example 131] as the compound, how does the IC50 read?
The IC50 was under 0.2 µM.

COc1ccc(Nc2ncc(CCc3ccc4[nH]c(=O)ccc4c3)cn2)cc1C [Example 132] was tested. Which IC50 did it give?
Its IC50 is under 0.2 µM.

FC1(F)Oc2ccc(Nc3ncc(CCc4ccc5[nH]ncc5c4)cn3)cc2O1 [Example 133] was tested. Which IC50 did it give?
Its IC50 is 1 to 10 µM.

How did the IC50 turn out when CCc1ccc(Nc2ncc(CCc3ccc4[nH]ncc4c3)cn2)cc1Cl [Example 134] was run?
Its IC50 is 1 to 10 µM.

For CCc1ccc(Nc2ncc(CCc3ccc4[nH]c(=O)ccc4c3)cn2)cc1Cl [Example 135], which IC50 is on record?
The IC50 was 1 to 10 µM.

With CC1(C)OC(=O)Nc2ccc(CCc3cnc(Nc4ccc(OC(F)F)cc4)nc3)cc21 [Example 138] as the compound, how does the IC50 read?
The IC50 was over 10 µM.

With O=C1Nc2ccc(CCc3cnc(Nc4ccc(OC(F)F)cc4)nc3)cc2CO1 [Example 139] as the compound, how does the IC50 read?
Its IC50 is under 0.2 µM.

CC1(C)OC(=O)Nc2ccc(CCc3cnc(Nc4ccc(OC(F)F)c(Cl)c4)nc3)cc21 [Example 140] was tested. Which IC50 did it give?
The IC50 was 0.201 to 1 µM.

With CCc1ccc(Nc2ncc(CCc3ccc4c(c3)C(C)(C)OC(=O)N4)cn2)cc1F [Example 141] as the compound, how does the IC50 read?
Its IC50 is 1 to 10 µM.

How did the IC50 turn out when Cc1ccc(Nc2ncc(CCc3ccc4c(c3)C(C)(C)OC(=O)N4)cn2)cc1F [Example 142] was run?
The IC50 was 1 to 10 µM.

O=C1Nc2ccc(CCc3cnc(Nc4ccc(OC(F)F)c(Cl)c4)nc3)cc2CO1 [Example 143] was tested. Which IC50 did it give?
Its IC50 is under 0.2 µM.

CCc1ccc(Nc2ncc(CCc3ccc4c(c3)COC(=O)N4)cn2)cc1F [Example 144] was tested. Which IC50 did it give?
The IC50 was under 0.2 µM.

Cc1cc(Nc2ncc(CCc3ccc4c(c3)COC(=O)N4)cn2)ccc1OC(F)F [Example 145] was tested. Which IC50 did it give?
The IC50 was under 0.2 µM.

How did the IC50 turn out when O=C1Nc2ccc(CCc3cnc(Nc4ccc(OC(F)F)c(F)c4)nc3)cc2CO1 [Example 146] was run?
Its IC50 is under 0.2 µM.

For Cc1cc(Nc2ncc(CCc3ccc4c(c3)C(C)(C)OC(=O)N4)cn2)ccc1OC(F)F [Example 147], which IC50 is on record?
The IC50 was 1 to 10 µM.

For CC1(C)OC(=O)Nc2ccc(CCc3cnc(Nc4ccc(OC(F)F)c(F)c4)nc3)cc21 [Example 148], which IC50 is on record?
The IC50 was 1 to 10 µM.

Cc1ccc(Nc2ncc(CCc3ccc4c(c3)COC(=O)N4)cn2)cc1F [Example 149] was tested. Which IC50 did it give?
Its IC50 is under 0.2 µM.

How did the IC50 turn out when Oc1ccc(CCc2cnc(Nc3ccc(OC(F)F)cc3)nc2)cc1 [Example 150] was run?
Its IC50 is under 0.2 µM.

How did the IC50 turn out when CCc1ccc(Nc2ncc(CCc3cnc4[nH]ncc4c3)cn2)cc1F [Example 151] was run?
The IC50 was 0.201 to 1 µM.

For Fc1cc(Nc2ncc(CCc3cnc4[nH]ncc4c3)cn2)ccc1OC(F)F [Example 152], which IC50 is on record?
Its IC50 is under 0.2 µM.

With Cc1cc(Nc2ncc(CCc3cnc4[nH]ncc4c3)cn2)ccc1OC(F)F [Example 153] as the compound, how does the IC50 read?
Its IC50 is under 0.2 µM.

For FC(F)Oc1ccc(Nc2ncc(CCc3cnc4[nH]ncc4c3)cn2)cc1 [Example 154], which IC50 is on record?
The IC50 was under 0.2 µM.

O=c1ccc2cc(CCc3cnc(Nc4ccc(OC(F)F)cc4)nc3)cnc2[nH]1 [Example 155] was tested. Which IC50 did it give?
The IC50 was under 0.2 µM.

Same assay, conditions: oocytes voltage clamped at −40 mV; 50 μM glutamate, 30 μM glycine; read-out: hNR2B IC50

With O=c1ccc2cc(OCc3cc(Nc4ccc(Cl)c(Cl)c4)ncn3)ccc2[nH]1 [Example 95, 6-((6-(3,4-dichlorophenylamino)pyrimidin-4-yl)methoxy)quinolin-2(1H)-one trifluoroacetate] as the compound, how does the IC50 read?
Its IC50 is 0.036 µM.

O=c1ccc2cc(OCc3cnc(Nc4ccc(Cl)c(Cl)c4)cn3)ccc2[nH]1 [Example 98, 6-((5-(3,4-dichlorophenylamino)pyrazin-2-yl)methoxy)quinolin-2(1H)-one] was tested. Which IC50 did it give?
Its IC50 is over 3 µM.

With O=c1ccc2cc(Oc3ccc(NCc4ccc(OC(F)(F)F)cc4)nn3)ccc2[nH]1 [Example 102, 6-(6-(4-(trifluoromethoxy)benzylamino)pyridazin-3-yloxy)quinolin-2(1H)-one] as the compound, how does the IC50 read?
The IC50 was 4.6 µM.

Which IC50 does the source give for FC(F)Oc1ccc(Nc2ncc(CCc3ccc4[nH]ncc4c3)cn2)cc1Cl [Example 104, 5-(2-(1H-indazol-5-yl)ethyl)-N-(3-chloro-4-(difluoromethoxy)phenyl)pyrimidin-2-amine] here?
Its IC50 is 0.183 µM.

How did the IC50 turn out when O=c1ccc2cc(CCc3cnc(Nc4ccc(OC(F)F)c(Cl)c4)nc3)ccc2[nH]1 [Example 105, 6-(2-(2-(3-chloro-4-(difluoromethoxy)phenylamino)pyrimidin-5-yl)ethyl)quinolin-2(1H)-one] was run?
Its IC50 is 0.0025 µM.

With Oc1ccc(CCc2cnc(Nc3ccc(OC(F)F)cc3)nc2)cc1 [Example 107, 4-(2-(2-((4-(difluoromethoxy)phenyl)amino)pyrimidin-5-yl)ethyl)phenol] as the compound, how does the IC50 read?
The IC50 was 0.035 µM.

For FC(F)Oc1ccc(Nc2ccc(CCc3ccc4[nH]ncc4c3)nn2)cc1 [Example 156, 6-(2-(1H-indazol-5-yl)ethyl)-N-(4-(difluoromethoxy)phenyl)pyridazin-3-amine], which IC50 is on record?
The IC50 was 0.135 µM.
